Results on one compound are retold here after patent US20250002492A1, “COMPOSITIONS OF FOLATE ABSORPTION INHIBITORS AND METHODS THEREOF” (THE TEXAS A&M UNIVERSITY SYSTEM, priority 2023, published 2025).

What is called inhibition is the change of the read-out against control, counted positive when it falls.

The structures appear in SMILES notation.

In data set [1] the target is T1, Folate Uptake Transporter (PCFT) in Caco2 cells (Homo sapiens, UniProt Q96NT5).
T1 construct: These cells express high levels of the PCFT/SLC46A1 receptor; host or cells: Caco-2
T1 sequence (Q96NT5 1-459): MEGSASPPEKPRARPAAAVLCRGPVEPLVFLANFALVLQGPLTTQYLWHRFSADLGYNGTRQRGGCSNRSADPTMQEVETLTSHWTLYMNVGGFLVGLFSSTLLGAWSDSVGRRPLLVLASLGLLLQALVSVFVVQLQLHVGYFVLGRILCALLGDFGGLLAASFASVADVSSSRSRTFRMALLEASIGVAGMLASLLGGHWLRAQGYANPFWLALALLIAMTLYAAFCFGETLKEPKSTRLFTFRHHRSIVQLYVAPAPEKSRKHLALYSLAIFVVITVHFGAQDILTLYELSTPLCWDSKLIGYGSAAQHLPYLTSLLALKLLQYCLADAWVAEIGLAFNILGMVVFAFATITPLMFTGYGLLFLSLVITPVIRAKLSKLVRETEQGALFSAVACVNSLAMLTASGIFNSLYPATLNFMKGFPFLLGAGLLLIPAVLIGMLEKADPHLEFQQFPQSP
The data set is described as follows: Folate uptake transporter inhibition in Caco2 cell line ([3H]-folic acid uptake). In kind it is cell-based. The method, then: Cell plates were prepared using Caco-2 cell culture medium consisting of Dulbecco's Modified Eagle's Medium (DMEM) with high glucose and L-glutamine supplemented with: 10% FBS, 1× penicillin-streptomycin mixture and 1×non-essential amino acids (NEAA) and medium was incubated at 37° C., 5% CO2 for 0.5 hour. Plates were prepared for cell seeding. Caco-2 cells from American Type Culture Collection at passage 44 were cultivated in T-75 flasks in a cell culture incubator set at 37° C., 5% CO2, 95% relative humidity. Cells reached 80-90% confluence before detaching and splitting. Cultivated cells in T-75 flasks were rinsed with 5 mL PBS and aspirated off. Then, 3 mL trypsin/EDTA was added, and cells were incubated at 37° C. for approximately 5 minutes or until the cells detached and floated. Trypsin/EDTA was inactivate by adding excess serum containing medium. Cell suspension was removed and transferred to a conical tube and cells were pelleted by centrifugation at 120×g for 5 minutes. Cells were resuspended in seeding medium at a density of 3×10^4 cells/well in 24-well plates. The plate was incubated for 8-10 days. The medium was replaced every other day, beginning no sooner than 48 hours after initial plating.
The transport buffer (HBSS with 10 mM MES, pH 5.5) was prepared by weighing 1.952 g of MES and 0.35 g sodium hydrogen carbonate and adding into 900 mL of pure water followed by sonication to dissolve the content. Following the transfer of 100 mL of 10×HBSS into the solution. The solution was placed on a stirrer, the pH was slowly adjusted with hydrochloric acid to 5.5, and then the solution was filtered to get HBSS solution (with 10 mM MES, pH 5.5).
The [3H]-folic acid (10 nM) substrate solution was prepared using [3H]-folic acid (1 mCi/ml) diluted with pH 5.5 buffer. Next, the [3H]-folic acid (10 nM) substrate solution+test inhibitor (X μM) and the [3H]-folic acid (10 nM) substrate solution+positive control inhibitor (pemetrexed, 50 μM) were prepared. For the solution without inhibitor, DMSO was diluted with corresponding substrate solution to get the working incubation solution.
The pre-incubation solution was prepared by adding the same final concentration of test compound (X μM) and the known inhibitor (pemetrexed, 50 μM) in pH 5.5 buffer. For the solution without inhibitor, DMSO diluted with in pH 5.5 buffer was used as the vehicle control.
When the 8-10 day Caco-2 cultured cells reached confluence and were differentiated, they were ready to be used for transport studies. The Caco-2 plate was removed from the incubator, and the medium was removed from the 24-well Plates. Next, cells were washed 3 times with 300 μL of pre-warmed pH 5.5 buffer. Then, 300 μL of pre-incubation solution was added into each well and the plate was placed at 37° C. for 30 minutes. The assay was performed in duplicate. After 30 minutes pre-incubation, the pre-incubation solution was aspirated, and 300 μL of pre-warmed working incubation solution was added to start the transporter assay. After 6 minutes incubation, cells were washed by quickly adding/aspirating 300 μL of ice-cold pH 5.5 buffer 4 times. The pH 5.5 buffer was removed and 300 μL of pure water was added into each well. Freeze-thaw in liquid nitrogen and 37° C. incubator was repeated for 3 times to lyse cells. After, centrifugation at 3,300 g was performed for 30 seconds. Next, 50 μL of supernatant was transferred to Isoplate-96 Microplate. 200 μL of scintillation fluid was added to the 50 μL sample and radioactivity was measured by liquid scintillation counting in a MicroBeta 2 scintillation counter for 1 min/sample.
A BCA Kit was used to determine the protein content for each well. Bovine serum albumin at 2, 1, 0.5, 0.25, 0.125, 0.0625, 0.0313, 0.0156, 0.00781 and 0.00391 mg/mL was prepared in Phosphate Buffer Saline (PBS, pH 7.4). 10 μL of supernatant was mixed from the previous step with the same volume of PBS. […]

Another data set has as its system Caco-2 cells. The data set is described as follows: Toxicity in Caco-2 cells. In kind it is cell-based. The settings on record: tested at 2-400 μM.

Take `CC(=O)N1CCC(C(=O)N2CCN3C(=O)c4cc(-c5ccccc5)ccc4NC(=O)C3C2)CC1` (stereo not drawn) [MPOL_B_1, 2-(1-acetylpiperidine-4-carbonyl)-8-phenyl-1,3,4,12a-tetrahydrobenzo[e]pyrazino[1,2-a][1,4]diazepine-6,12(2H,11H)-dione]: the inhibition at 50 µM in data set [1] (Caco-2, pH 5.5, test conc. 50 μM, [3H]-folic acid 10 nM, 30 min pre-incubation, 6 min incubation, read-out: Percentage inhibition (%)) was determined as 42.3%. Further, in data set [1] (Caco-2 cells, 50 μM, pH 5.5), the “effect on folate transport / uptake” value is on record as “inhibit folate uptake”. The “toxicity” value in the data set on Caco-2 cells is on record as “not toxic”.
